The text below walks through data of ChEMBL document CHEMBL1131386, “Synthesis and evaluation of 11beta-substituted 21-chloro/iodo-(17alpha,20E/Z)-19-norpregna-1,3,5(10),20-te traene-3, 17beta-diols: high-affinity ligands for the estrogen receptor” (J Med Chem, 1998).

The target of experiment [1] is T1, Estrogen receptor (Ovis aries) (UniProt P49885+Q9TU15). Kind of experiment: Relative binding affinity for lamb uterine estrogen receptor at 4C. The class given is protein assay.
The target in experiment [2] is T1, Estrogen receptor (Ovis aries). Kind of experiment: Relative binding affinity for lamb uterine estrogen receptor at 25 degree C. The class given is protein assay.

Regarding `C=C[C@H]1C[C@@]2(C)[C@@H](CC[C@@]2(O)/C=C\Cl)[C@@H]2CCc3cc(O)ccc3[C@H]21`, the RBA turned out to be 101 in experiment [1] and 704 in experiment [2].
Take `C[C@]12CC[C@@H]3c4ccc(O)cc4CC[C@H]3[C@@H]1CC[C@@]2(O)/C=C\I`: the results for the RBA in experiment [1] and in experiment [2] were 202 and 776, respectively.
With `CO[C@H]1C[C@@]2(C)[C@@H](CC[C@@]2(O)/C=C/I)[C@@H]2CCc3cc(O)ccc3[C@H]21`, the RBA in experiment [1] worked out at 34; in experiment [2] it was 65.
In the same order, the values of `C=C[C@H]1C[C@@]2(C)[C@@H](CC[C@@]2(O)/C=C/I)[C@@H]2CCc3cc(O)ccc3[C@H]21` are 78 and 447.
In the same order, the values of `CO[C@H]1C[C@@]2(C)[C@@H](CC[C@@]2(O)/C=C/Cl)[C@@H]2CCc3cc(O)ccc3[C@H]21` are 29 and 65.
With `CO[C@H]1C[C@@]2(C)[C@@H](CC[C@@]2(O)/C=C\Cl)[C@@H]2CCc3cc(O)ccc3[C@H]21`, the RBA in experiment [1] came to 22; in experiment [2], 195.
As for `CO[C@H]1C[C@@]2(C)[C@@H](CC[C@@]2(O)/C=C\I)[C@@H]2CCc3cc(O)ccc3[C@H]21`, the RBA in experiment [1] was found to be 48; in experiment [2], 513.
With `C=C[C@H]1C[C@@]2(C)[C@@H](CC[C@@]2(O)/C=C/Cl)[C@@H]2CCc3cc(O)ccc3[C@H]21`, the results for the RBA in experiment [1] and in experiment [2] were 107 and 724, respectively.
In the same order, the values of `C[C@]12CC[C@@H]3c4ccc(O)cc4CC[C@H]3[C@@H]1CC[C@@]2(O)/C=C/I` are 77 and 62.
The corresponding values for `C[C@]12CC[C@@H]3c4ccc(O)cc4CC[C@H]3[C@@H]1CC[C@@]2(O)/C=C\Cl` are 126 and 199.
The corresponding values for `C=C[C@H]1C[C@@]2(C)[C@@H](CC[C@@]2(O)/C=C\I)[C@@H]2CCc3cc(O)ccc3[C@H]21` are 98 and 1200.
For `C[C@]12CC[C@@H]3c4ccc(O)cc4CC[C@H]3[C@@H]1CC[C@@]2(O)/C=C/Cl`, the figures for the RBA in experiment [1] and in experiment [2] were 102 and 89, respectively.
